In assay [1] the test system is T1, Dihydrofolate reductase (Escherichia coli), P0ABQ4 [T46A].
T1 sequence (whole entry): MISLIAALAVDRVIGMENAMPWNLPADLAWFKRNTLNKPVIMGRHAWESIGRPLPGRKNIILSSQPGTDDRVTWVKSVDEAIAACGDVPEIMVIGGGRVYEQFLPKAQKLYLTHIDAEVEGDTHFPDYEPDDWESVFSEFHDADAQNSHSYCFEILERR

The test system of assay [2] is T2, Dihydrofolate reductase (Escherichia coli), P0ABQ4 [T46N].
T2 sequence (whole entry): T1 sequence (whole entry) with A46N

Assay [3] has as its system T3, Dihydrofolate reductase (Escherichia coli), P0ABQ4 [T46S].
T3 sequence (whole entry): T1 sequence (whole entry) with A46S

Assay [4] deals with T4, Dihydrofolate reductase (Escherichia coli) (UniProt P0ABQ4).
T4 sequence (whole entry): T1 sequence (whole entry) with A46T
Description: Dissociation rate constant of compound for wild type Escherichia coli dihydrofolate reductase

The target in assay [5] is T4, Dihydrofolate reductase (Escherichia coli). This is another data set of the same source.
Description: Rate of hydride transfer (E-N) of compound for wild type Escherichia coli dihydrofolate reductase

Substitutions are numbered along the chain they refer to.

Take `NC(=O)c1ccc[n+]([C@@H]2O[C@H](COP(=O)([O-])OP(=O)(O)OC[C@H]3O[C@@H](n4cnc5c(N)ncnc54)[C@H](OP(=O)(O)O)[C@@H]3O)[C@@H](O)[C@H]2O)c1`: the k off turned out to be 28 s⁻¹ in assay [1], 56 s⁻¹ in assay [2], 60 s⁻¹ in assay [3] and 3.5 s⁻¹ in assay [4].

In the case of `Nc1nc(=O)c2c([nH]1)NCC(CNc1ccc(C(=O)N[C@@H](CCC(=O)O)C(=O)O)cc1)=N2`, the k off in assay [4] came to 22 s⁻¹.

In the case of `NC(=O)c1ccc[n+]([C@H]2O[C@@H](COP(=O)([O-])OP(=O)(O)OC[C@H]3O[C@@H](n4cnc5c(N)ncnc54)[C@H](OP(=O)(O)O)[C@@H]3O)[C@H](O)[C@@H]2O)c1`, the k off in assay [1] is 274 s⁻¹; in assay [2] it was 253 s⁻¹; in assay [3], 230 s⁻¹; in assay [4], 200 s⁻¹.

In assay [5], `Nc1nc(O)c2c(n1)NCC(CNc1ccc(C(=O)N[C@@H](CCC(=O)O)C(=O)O)cc1)N2` (stereo not given in full) returned a Rate of hydride transfer of 950 s⁻¹.
